# Laboratory results from patent US10189809B2, “SGC stimulators” (Ironwood Pharmaceuticals, Inc., priority 2010, dated 2019).
# Read-outs that look alike come from different tables or passages of the source.
# How the values were obtained:
# [1] = target: Human soluble guanylate cyclase enzyme (hsGC) (Homo sapiens (Human), UniProt Q02108+Q02153); assay: Purified human sGC enzyme activity assay; type: biochemical; conditions: for sGC Enzyme (specific activity at 10 μM) / sGC Enzyme (fold increase at 10 μM without SNP): 10 μM compound; for sGC Enzyme (specific activity at 30 μM) / sGC Enzyme (fold increase at 30 μM without SNP): 30 μM compound
# Description: Human soluble guanylate cyclase enzyme (hsGC) obtained from Enzo Inc. (P/N: ALX-201-177) was used to evaluate the activity of test compounds. The assay reactions contained 0.1 M Tris (pH 8.0), 0.5 mg/mL BSA (pH 8.0), 2 mM DTT, 2 mM MgCl2, 300 μM GTP, 1 mM 3-isobutyl-1-methylxanthine (IBMX) and 5 ng human soluble guanylate cyclase enzyme. Test compounds in DMSO were then added (2 μL, 10 or 30 μM final concentration) and incubated (200 μL, 96-well plate format) at 37° C. for 30 minutes. The controls were carried out using 2 μL DMSO. After the 30 minute incubation, the reaction was stopped with the addition of 200 μL of cold methanol. The plate was then centrifuged at 3,200 rpm for 10 minutes at room temperature. Supernatants (200 μL) were collected and transferred to a new 96 well plate for analysis.
# An 8 point cGMP (Sigma-Aldrich P/N: G6129) standard curve was prepared in assay buffer ranging from 0.156-20 μM. Samples for the cGMP standard curve were then diluted with an equal volume of methanol resulting in final cGMP concentrations of 0.078-10 μM.
# The cGMP standard curve was generated using GraphPad Prism Software.
# Calculations: Specific Activity was determined by the amount of cGMP formed (nmoles) per mg of sGC per min. Enzyme “fold-change” was calculated by dividing Specific Activity for test compounds by Specific Activity of DMSO controls.
# [2] = target: T1, soluble guanylate cyclase (sGC) (Homo sapiens (Human), UniProt Q02108+Q02153); assay: sGC-HEK-cGMP assay run in the absence of SNP (HEK WC assay); type: cell-based; conditions: for HEK WC Assay (fold increase at 10 μM): compound at 10 μM; for HEK WC Assay (fold increase at 10 μM) / HEK WC Assay (fold increase at 30 μM): no SNP, increase in the sGC receptor activity; for HEK WC Assay (fold increase at 30 μM) / HEK WC Assay (fold increase at 30 μM in the absence of SNP): compound at 30 μM
# How it was run: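 HEK293 cells with endogenous sGC, preincubated 15 min at 37° C with 0.5 mM IBMX, then exposed to test compound 10 min at 37° C without SNP. Cells lysed in 0.1 M HCl; cGMP quantified by LC/MS against a standard curve. EC50 from concentration-response curves.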
# [3] = target: T1, soluble guanylate cyclase (sGC); assay: sGC-HEK-cGMP assay run with SNP incubation (HEK WC assay); type: cell-based; conditions: for Emax at 10 µM: read-out: HEK WC Assay (% Emax at 10 uM/with 10 uM SNP); for Emax at 30 µM: read-out: HEK WC Assay (% Emax at 30 uM/with 10 uM SNP); for HEK WC Assay (fold increase at 30 μM in the presence of 10 μM SNP): compound at 30 μM; for EC50: in the presence of 10 uM SNP
# How it was run: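 HEK293 cells with endogenous sGC were pretreated with 0.5 mM IBMX for 15 min at 37 °C, then exposed to test compound plus sodium nitroprusside for 10 min at 37 °C.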
# [4] = read-out: HEK WC Assay (% Emax at 1 μM with 10 uM SNP)
# [5] = read-out: HEK WC Assay (% Emax at 10 μM with 10 uM SNP)
# [6] = read-out: HEK WC Assay (% Emax at 30 μM with 10 uM SNP)
# Chain of Human soluble guanylate cyclase enzyme (hsGC) (Q02153 whole entry): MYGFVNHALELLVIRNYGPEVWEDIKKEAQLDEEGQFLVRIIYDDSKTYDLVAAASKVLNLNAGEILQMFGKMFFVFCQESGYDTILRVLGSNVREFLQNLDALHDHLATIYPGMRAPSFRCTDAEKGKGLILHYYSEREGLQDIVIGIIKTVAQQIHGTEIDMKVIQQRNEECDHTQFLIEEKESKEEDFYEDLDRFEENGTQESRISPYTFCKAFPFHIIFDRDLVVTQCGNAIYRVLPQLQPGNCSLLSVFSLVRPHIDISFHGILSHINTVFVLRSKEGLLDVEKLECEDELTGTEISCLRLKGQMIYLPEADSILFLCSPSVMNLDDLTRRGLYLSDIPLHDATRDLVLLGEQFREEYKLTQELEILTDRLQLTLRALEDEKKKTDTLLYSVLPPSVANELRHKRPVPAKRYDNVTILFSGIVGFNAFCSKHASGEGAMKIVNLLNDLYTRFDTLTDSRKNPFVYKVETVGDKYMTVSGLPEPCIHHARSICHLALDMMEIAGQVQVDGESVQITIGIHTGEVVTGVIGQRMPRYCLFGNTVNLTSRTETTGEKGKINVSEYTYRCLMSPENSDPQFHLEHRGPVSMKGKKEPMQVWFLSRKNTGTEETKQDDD
# Chain of Human soluble guanylate cyclase enzyme (hsGC) (Q02108 whole entry): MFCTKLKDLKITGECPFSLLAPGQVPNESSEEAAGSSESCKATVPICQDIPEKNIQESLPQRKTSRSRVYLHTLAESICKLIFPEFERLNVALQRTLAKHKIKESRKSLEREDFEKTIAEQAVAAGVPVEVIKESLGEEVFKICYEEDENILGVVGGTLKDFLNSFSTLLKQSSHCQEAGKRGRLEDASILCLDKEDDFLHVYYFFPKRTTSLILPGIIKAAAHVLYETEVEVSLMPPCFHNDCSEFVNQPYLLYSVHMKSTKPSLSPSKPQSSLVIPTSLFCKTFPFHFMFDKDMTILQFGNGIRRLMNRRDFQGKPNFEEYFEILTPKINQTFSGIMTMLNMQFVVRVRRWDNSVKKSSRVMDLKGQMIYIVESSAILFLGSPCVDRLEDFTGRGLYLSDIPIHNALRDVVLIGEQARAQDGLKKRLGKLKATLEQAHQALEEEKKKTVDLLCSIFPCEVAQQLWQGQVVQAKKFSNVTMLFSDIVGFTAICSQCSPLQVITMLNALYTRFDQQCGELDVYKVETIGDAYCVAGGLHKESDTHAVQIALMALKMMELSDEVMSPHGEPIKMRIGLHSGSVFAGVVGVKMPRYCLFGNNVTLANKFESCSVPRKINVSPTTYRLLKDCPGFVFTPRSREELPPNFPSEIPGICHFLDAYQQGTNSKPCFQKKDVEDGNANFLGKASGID
# T1 sequence (Q02153 whole entry): as the sequence (Q02153 whole entry) above
# T1 sequence (Q02108 whole entry): as the sequence (Q02108 whole entry) above
sGC Enzyme (specific activity at 10 μM) [1],sGC Enzyme (fold increase at 10 μM without SNP) [1],sGC Enzyme (specific activity at 30 μM) [1],sGC Enzyme (fold increase at 30 μM without SNP) [1],HEK WC Assay (fold increase at 10 μM) [2],HEK WC Assay (fold increase at 30 μM) [2],Emax at 10 µM [3] [%],Emax at 30 µM [3] [%],HEK WC Assay (fold increase at 30 μM in the absence of SNP) [2],HEK WC Assay (fold increase at 30 μM in the presence of 10 μM SNP) [3],EC50 [3] [µM],"Emax [3, 4] [%]","Emax [3, 5] [%]","Emax [3, 6] [%]",Structure (SMILES)
C (C = 100 to <200),A (A = no increase to <2 fold increase),C (C = 100 to <200),A (A = no increase to <2 fold increase),A (A = no increase to <1 fold increase),A (A = no increase to <1 fold increase),0 to 10,10 to 20,,,,,,,Fc1ccccc1Cn1nc(-c2ccccn2)cc1-c1ccncn1 [Compound I-21]
B (B = 50 to <100),A (A = no increase to <2 fold increase),C (C = 100 to <200),A (A = no increase to <2 fold increase),A (A = no increase to <1 fold increase),A (A = no increase to <1 fold increase),0 to 10,0 to 10,,,,,,,Fc1ccccc1Cn1nc(-c2ccccn2)cc1-c1cnccn1 [Compound I-34]
,A (A = no increase to <2 fold increase),,A (A = no increase to <2 fold increase),A (A = no increase to <1 fold increase),A (A = no increase to <1 fold increase),,,,,,,,,Fc1ccccc1Cn1nc(-c2ncccn2)cc1-c1ccncc1 [Compound I-19]
C (C = 100 to <200),A (A = no increase to <2 fold increase),C (C = 100 to <200),A (A = no increase to <2 fold increase),A (A = no increase to <1 fold increase),A (A = no increase to <1 fold increase),0 to 10,0 to 10,,,,,,,COc1cccc(-c2cc(-c3ncccn3)n(Cc3ccccc3F)n2)n1 [Compound I-15]
C (C = 100 to <200),A (A = no increase to <2 fold increase),D (D = 200 to <500),A (A = no increase to <2 fold increase),A (A = no increase to <1 fold increase),A (A = no increase to <1 fold increase),0 to 10,0 to 10,,,,,,,Fc1ccccc1Cn1nc(-c2ncccn2)cc1-c1cnc2ccoc2c1 [Compound I-32]
C (C = 100 to <200),A (A = no increase to <2 fold increase),D (D = 200 to <500),A (A = no increase to <2 fold increase),A (A = no increase to <1 fold increase),A (A = no increase to <1 fold increase),,,,,,,,,Fc1ccccc1Cn1nc(-c2ccccn2)cc1-c1cccnc1 [Compound I-20]
,,,,,,,,E (E = 10 to <20 fold increase),F (F = 20 to <30 fold increase),< 20,80 to 100,80 to 100,80 to 100,Nc1nc(-c2cc(-c3ccon3)n(Cc3ccccc3F)n2)ncc1NC(=O)C12CC3CC(CC(C3)C1)C2 [Compound I-233]
,,,,,,,,C (C = 2 to <5 fold increase),D (D = 5 to <10 fold increase),,,20 to 40,20 to 40,Fc1ccccc1Cn1nc(-c2ccccn2)cc1-c1cnco1 [Compound I-285]
,,,,,,,,D (D = 5 to <10 fold increase),E (E = 10 to <20 fold increase),60 to 100,0 to 10,10 to 20,20 to 40,NCC(=O)Nc1cnc(-c2cc(-c3ccon3)n(Cc3ccccc3F)n2)nc1N [Compound I-213]
,,,,,,,,C (C = 2 to <5 fold increase),E (E = 10 to <20 fold increase),< 20,20 to 40,40 to 60,40 to 60,Fc1cccc(Cn2nc(-c3ncccn3)cc2-c2ccon2)c1 [Compound I-202]
,,,,,,,,D (D = 5 to <10 fold increase),E (E = 10 to <20 fold increase),< 20,20 to 40,40 to 60,40 to 60,Oc1nc(-c2cc(-c3ccon3)n(Cc3ccccc3F)n2)ncc1Br [Compound I-192]
,,,,,,,,D (D = 5 to <10 fold increase),E (E = 10 to <20 fold increase),< 20,40 to 60,80 to 100,80 to 100,Nc1nc(-c2cc(-c3ccon3)n(Cc3ccccc3F)n2)ncc1NC(=O)c1cocn1 [Compound I-180]
,,,,,,,,D (D = 5 to <10 fold increase),E (E = 10 to <20 fold increase),< 20,20 to 40,60 to 80,40 to 60,O=S(=O)(c1ccc(F)cc1)c1cnc(-c2cc(-c3ccon3)n(Cc3ccccc3F)n2)nc1O [Compound I-241]
,,,,,,,,B (B = 1 to <2 fold increase),C (C = 2 to <5 fold increase),,,0 to 10,0 to 10,CC(=O)Nc1c(N)nc(-c2cc(-c3ccon3)n(Cc3ccccc3F)n2)nc1N [Compound I-141]
,,,,,,,,D (D = 5 to <10 fold increase),E (E = 10 to <20 fold increase),< 20,40 to 60,60 to 80,60 to 80,Fc1ccccc1Cn1nc(-c2ncccn2)cc1-c1ccon1 [Compound I-195]
,,,,,,,,C (C = 2 to <5 fold increase),E (E = 10 to <20 fold increase),20 to 40,10 to 20,40 to 60,40 to 60,Oc1nc(-c2cc(-c3ncco3)n(Cc3ccccc3F)n2)ncc1F [Compound I-197]
,,,,,,,,D (D = 5 to <10 fold increase),E (E = 10 to <20 fold increase),20 to 40,40 to 60,40 to 60,20 to 40,Nc1nc(-c2cc(-c3ccon3)n(Cc3ccccc3F)n2)ncc1NC(=O)C1(c2ccccc2)CCC1 [Compound I-218]
,,,,,,,,D (D = 5 to <10 fold increase),E (E = 10 to <20 fold increase),< 20,,20 to 40,40 to 60,Fc1ccccc1Cn1nc(-c2ncccn2)cc1-c1ccco1 [Compound I-306]
,,,,,,,,C (C = 2 to <5 fold increase),E (E = 10 to <20 fold increase),< 20,20 to 40,60 to 80,60 to 80,CC(C)(C(=O)Nc1cnc(-c2cc(-c3ccon3)n(Cc3ccccc3F)n2)nc1N)c1ccccc1 [Compound I-236]
